In PMC9865645, “The Impact of N^ε-Acryloyllysine Piperazides on the Conformational Dynamics of Transglutaminase 2” (International Journal of Molecular Sciences, 2023):

Target: T1, in-house produced N-terminally Twin-Strep-tagged hTGase 2 (Homo sapiens, UniProt P21980)
T1 construct: thrombin cleavage site (N); made in house; host or cells: E. coli BL21(DE3)
T1 sequence (P21980 1-687): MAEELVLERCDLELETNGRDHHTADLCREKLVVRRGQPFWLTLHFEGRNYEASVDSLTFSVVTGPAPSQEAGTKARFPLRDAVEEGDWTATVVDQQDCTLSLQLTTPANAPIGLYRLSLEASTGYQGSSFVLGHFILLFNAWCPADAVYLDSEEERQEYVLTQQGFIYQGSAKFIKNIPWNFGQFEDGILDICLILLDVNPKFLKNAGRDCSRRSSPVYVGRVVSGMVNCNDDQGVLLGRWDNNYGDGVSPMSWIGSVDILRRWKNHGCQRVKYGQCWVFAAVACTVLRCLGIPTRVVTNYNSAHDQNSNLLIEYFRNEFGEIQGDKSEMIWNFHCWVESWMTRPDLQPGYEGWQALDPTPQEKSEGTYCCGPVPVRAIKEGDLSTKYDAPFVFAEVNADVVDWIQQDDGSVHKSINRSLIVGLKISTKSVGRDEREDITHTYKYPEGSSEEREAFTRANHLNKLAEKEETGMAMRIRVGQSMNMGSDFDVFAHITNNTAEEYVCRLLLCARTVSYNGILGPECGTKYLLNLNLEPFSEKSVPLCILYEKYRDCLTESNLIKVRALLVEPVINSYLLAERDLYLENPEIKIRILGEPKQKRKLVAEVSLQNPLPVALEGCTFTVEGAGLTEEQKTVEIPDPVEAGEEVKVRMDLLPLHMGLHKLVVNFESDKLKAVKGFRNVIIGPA
Assay: fluorescence anisotropy (FA)-based transamidase activity assay, in-house Twin-Strep-tagged hTGase 2
Format: biochemical
Excerpt: The gene of hTGase 2 (Uniprot ID: P21980) with an N-terminal thrombin cleavage site was cloned into the pPSG-IBA105 vector containing the sequence for an N-terminal Twin-Strep-tag (IBA Lifesciences GmbH, Göttingen, Germany) to obtain the final plasmid pPSG-IBA105/TCS-hTGase 2. The plasmid construct was verified by DNA sequencing (Eurofins Genomics Germany GmbH) and then transformed into E. coli BL21(DE3) by the heat–shock method. hTGase 2-expressing E. coli cells were lysed by lysozyme treatment, and hTGase 2 was purified by affinity chromatography on an ÄKTA purifier UPC 10 FPLC equipped with a Strep-Tactin XT cartridge (GE Healthcare Europe GmbH, Freiburg, Germany). Identity and purity of self-produced hTGase 2 were verified by SDS-PAGE and Western Blot analysis, respectively. Protein concentration was determined according to Bradford. More detailed descriptions of the generation and characterization of the final plasmid construct pPSG-IBA105/TCS-hTGase 2 and the expression, purification, and characterization of the self-produced hTGase 2 protein will be published elsewhere (manuscript in preparation).
For the analysis of inhibitor 1 on self-produced hTGase 2, 2 µg/mL of the enzyme was used to guarantee comparability with the value reported by Wodtke et al., whereas all other experiments were performed with 5 µg/mL of either commercial or self-produced hTGase 2 (corresponding to 64.1 and 61.6 nM, respectively, when assuming 100% active protein). Parallel and perpendicular fluorescence intensities were measured over 1190 s in 35 s intervals (1) or over 1776 s in 48 s intervals (2, 3) and used to calculate the FA. Data of FA for the first 875 s (1) or 384 s (2, 3) were analyzed by linear regression, with slopes corresponding to enzymatic rates. Rates in the presence of inhibitor were normalized by dividing them by the respective rate in the absence of inhibitor, and normalized rates were analyzed according to Equation (S29) in Supplementary Materials to calculate values of IC50. Data analysis was performed with Microsoft Excel (Microsoft Office Professional Plus 2016, Microsoft® Corporation, USA) and GraphPad Prism version 5.03 or version 6.07 for Windows (GraphPad Software, La Jolla, CA, USA).

SMILES: C=CC(=O)NCCCC[C@H](NC(=O)Cc1ccccc1I)C(=O)N1CCN(c2ccc([N+](=O)[O-])nc2)CC1 [Compound 2, N^α-(2-Iodophenylacetyl)-N^ε-acryloyl-L-lysin-4-(2-nitropyridin-5-yl)piperazide]
- IC50 (5 min pre-incubation of enzyme and inhibitor, mean (SEM) of three experiments): 116 nM
- IC50 (30 min pre-incubation, hTGase 2 (in-house) 61.6 nM, mean (SEM)): 35.2 nM
